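Dose response: 5 concentrations. Exposure: 48 h. Format: 96-well plates. Endpoint: linear interpolation; highest concentration if not reached. GI50: concentration for 50% inhibition of growth. The concentration for full growth arrest is given as TGI.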
Tests used:
Assay in all cases: NCI tumour cell line growth inhibition, 48 h
LXFL 529 NSCLC = system: LXFL 529 NSCLC
DLD-1 colon = system: DLD-1 colon
RXF 393 renal = system: RXF 393 renal
KM12 colon = system: KM12 colon
LOX IMVI melanoma = system: LOX IMVI melanoma
XF 498 CNS = system: XF 498 CNS
A549 NSCLC = system: A549 NSCLC
M19-MEL melanoma = system: M19-MEL melanoma
NCI-H226 lung = system: NCI-H226 lung
HOP-92 NSCLC = system: HOP-92 NSCLC
HCT-15 colon = system: HCT-15 colon
SNB-19 CNS = system: SNB-19 CNS
HCC-2998 colon = system: HCC-2998 colon
UACC-257 melanoma = system: UACC-257 melanoma
U251 CNS = system: U251 CNS
HCT-116 colon = system: HCT-116 colon
K-562 leukemia = system: K-562 leukemia
UO-31 renal = system: UO-31 renal
SF-539 CNS = system: SF-539 CNS
SK-MEL-5 melanoma = system: SK-MEL-5 melanoma
DMS 114 small cell lung = system: DMS 114 small cell lung
786-0 renal = system: 786-0 renal
SNB-78 CNS = system: SNB-78 CNS
RPMI-8226 leukemia = system: RPMI-8226 leukemia
OVCAR-5 ovarian = system: OVCAR-5 ovarian
HL-60(TB) leukemia = system: HL-60(TB) leukemia
KM20L2 colon = system: KM20L2 colon
MALME-3M melanoma = system: MALME-3M melanoma
NCI-H23 lung = system: NCI-H23 lung
UACC-62 melanoma = system: UACC-62 melanoma
MOLT-4 leukemia = system: MOLT-4 leukemia
NCI-H460 lung = system: NCI-H460 lung
SK-MEL-28 melanoma = system: SK-MEL-28 melanoma
HOP-62 NSCLC = system: HOP-62 NSCLC
CAKI-1 renal = system: CAKI-1 renal
SW-620 colon = system: SW-620 colon
SF-268 CNS = system: SF-268 CNS
RXF-631 renal = system: RXF-631 renal
EKVX NSCLC = system: EKVX NSCLC
NCI-H522 lung = system: NCI-H522 lung
A498 renal = system: A498 renal
M14 melanoma = system: M14 melanoma
SNB-75 CNS = system: SNB-75 CNS
SK-OV-3 ovarian = system: SK-OV-3 ovarian
OVCAR-4 ovarian = system: OVCAR-4 ovarian
COLO 205 colon = system: COLO 205 colon
OVCAR-3 ovarian = system: OVCAR-3 ovarian
SN12C renal = system: SN12C renal
TK-10 renal = system: TK-10 renal
DMS 273 small cell lung = system: DMS 273 small cell lung
CCRF-CEM leukemia = system: CCRF-CEM leukemia
ACHN renal = system: ACHN renal
OVCAR-8 ovarian = system: OVCAR-8 ovarian
HT29 colon = system: HT29 colon
IGROV1 ovarian = system: IGROV1 ovarian
SK-MEL-2 melanoma = system: SK-MEL-2 melanoma
SF-295 CNS = system: SF-295 CNS
MCF7 breast = system: MCF7 breast
NCI/ADR-RES ovarian = system: NCI/ADR-RES ovarian
SN12K1 renal = system: SN12K1 renal
HOP-18 NSCLC = system: HOP-18 NSCLC
P388 leukemia = system: P388 leukemia

`COC(=O)C1Cc2c(n(C)c3ccccc23)C(CCC(=O)O)N1Cc1ccccc1` (stereo unspecified) was tested, and the TGI (LXFL 529 NSCLC) was > 100 µM, the TGI (DLD-1 colon) was > 100 µM and the TGI (RXF 393 renal) was 89.7 µM. For the same molecule, the TGI (KM12 colon) was 81.4 µM, the TGI (LOX IMVI melanoma) was > 100 µM and the TGI (XF 498 CNS) was 72.5 µM. The TGI (A549 NSCLC) was > 100 µM, the TGI (M19-MEL melanoma) was > 100 µM and the TGI (NCI-H226 lung) was 75.2 µM. For the same molecule, the TGI (HOP-92 NSCLC) was 60.2 µM, the TGI (HCT-15 colon) was > 100 µM and the TGI (SNB-19 CNS) was 97.3 µM. For the same molecule, the TGI (HCC-2998 colon) was > 100 µM, the TGI (UACC-257 melanoma) was > 100 µM and the TGI (U251 CNS) was > 100 µM. For the same molecule, the TGI (HCT-116 colon) was 43.2 µM, the TGI (K-562 leukemia) was > 100 µM and the TGI (UO-31 renal) was 51.4 µM. It also gave a TGI (SF-539 CNS) of 58 µM, a TGI (SK-MEL-5 melanoma) of 79.5 µM and a TGI (DMS 114 small cell lung) of 93.2 µM. For the same molecule, the TGI (786-0 renal) was > 100 µM, the TGI (SNB-78 CNS) was > 100 µM and the TGI (RPMI-8226 leukemia) was 75.2 µM. The TGI (OVCAR-5 ovarian) was > 100 µM, the TGI (HL-60(TB) leukemia) was > 100 µM and the TGI (KM20L2 colon) was > 100 µM. The TGI (MALME-3M melanoma) was > 100 µM, the TGI (NCI-H23 lung) was 80.7 µM and the TGI (UACC-62 melanoma) was 77.1 µM. The TGI (MOLT-4 leukemia) was > 100 µM, the TGI (NCI-H460 lung) was 80.7 µM and the TGI (SK-MEL-28 melanoma) was 58.2 µM. For the same molecule, the TGI (HOP-62 NSCLC) was > 100 µM, the TGI (CAKI-1 renal) was > 100 µM and the TGI (SW-620 colon) was > 100 µM. The TGI (SF-268 CNS) was 69.9 µM, the TGI (RXF-631 renal) was > 100 µM and the TGI (EKVX NSCLC) was > 100 µM. For the same molecule, the TGI (NCI-H522 lung) was 91.2 µM, the TGI (A498 renal) was 76.5 µM and the TGI (M14 melanoma) was 62.2 µM. The TGI (SNB-75 CNS) was 89.7 µM, the TGI (SK-OV-3 ovarian) was > 100 µM and the TGI (OVCAR-4 ovarian) was > 100 µM. The TGI (COLO 205 colon) was 71.9 µM, the TGI (OVCAR-3 ovarian) was 53.4 µM and the TGI (SN12C renal) was > 100 µM. The TGI (TK-10 renal) was > 100 µM, the TGI (DMS 273 small cell lung) was > 100 µM and the TGI (CCRF-CEM leukemia) was > 100 µM. The TGI (ACHN renal) was 81.8 µM, the TGI (OVCAR-8 ovarian) was > 100 µM and the TGI (HT29 colon) was > 100 µM. For the same molecule, the TGI (IGROV1 ovarian) was > 100 µM, the TGI (SK-MEL-2 melanoma) was > 100 µM and the TGI (SF-295 CNS) was 93.9 µM.
`C=C(NC(=O)C(=C)NC(=O)c1csc(C2=NC3c4csc(n4)C4NC(=O)c5csc(n5)C(C(C)(O)C(C)O)NC(=O)C5CSC(=N5)/C(=C/C)NC(=O)C(C(C)O)NC(=O)c5csc(n5)C3(CC2)NC(=O)C(C)NC(=O)C(=C)NC(=O)C(C)NC(=O)C(C(C)CC)NC2C=Cc3c(C(C)O)cc(nc3C2O)C(=O)OC4C)n1)C(N)=O` (stereo unspecified) was tested, and the TGI (LXFL 529 NSCLC) was 1.65 µM, the TGI (DLD-1 colon) was 4.44 µM and the GI50 (RXF 393 renal) was 0.307 µM. The TGI (RXF 393 renal) was 0.977 µM, the GI50 (MCF7 breast) was 6.27 µM and the TGI (MCF7 breast) was > 100 µM. It also gave a TGI (LOX IMVI melanoma) of 2.45 µM, a TGI (A549 NSCLC) of 58.4 µM and a TGI (M19-MEL melanoma) of 3.05 µM. For the same molecule, the TGI (NCI-H226 lung) was 3.8 µM, the TGI (NCI/ADR-RES ovarian) was > 100 µM and the GI50 (HOP-92 NSCLC) was 8.07 µM. The TGI (HOP-92 NSCLC) was > 100 µM, the TGI (HCT-15 colon) was > 34 µM and the TGI (SNB-19 CNS) was 8.28 µM. The TGI (HCC-2998 colon) was > 39.9 µM, the TGI (UACC-257 melanoma) was 4.22 µM and the TGI (U251 CNS) was 3.04 µM. The TGI (HCT-116 colon) was 1.77 µM, the TGI (UO-31 renal) was > 100 µM and the TGI (SF-539 CNS) was 4.13 µM. It also gave a TGI (SK-MEL-5 melanoma) of 2.58 µM, a TGI (DMS 114 small cell lung) of 7.69 µM and a TGI (786-0 renal) of 3.26 µM. The TGI (SNB-78 CNS) was > 100 µM, the TGI (RPMI-8226 leukemia) was 6.28 µM and the TGI (OVCAR-5 ovarian) was > 51.4 µM. For the same molecule, the TGI (HL-60(TB) leukemia) was > 100 µM, the TGI (KM20L2 colon) was 10.7 µM and the TGI (MALME-3M melanoma) was 3.99 µM. For the same molecule, the TGI (NCI-H23 lung) was 13.7 µM, the TGI (UACC-62 melanoma) was 2.42 µM and the TGI (NCI-H460 lung) was 4.39 µM. The TGI (SK-MEL-28 melanoma) was 3.71 µM, the TGI (HOP-62 NSCLC) was 99.4 µM and the TGI (CAKI-1 renal) was > 100 µM. For the same molecule, the TGI (SW-620 colon) was 1.62 µM, the GI50 (SF-268 CNS) was 4.74 µM and the TGI (SF-268 CNS) was > 100 µM. For the same molecule, the TGI (RXF-631 renal) was 18 µM, the TGI (EKVX NSCLC) was > 44.1 µM and the TGI (NCI-H522 lung) was 1.15 µM. For the same molecule, the TGI (A498 renal) was 3.59 µM, the TGI (SN12K1 renal) was 2.57 µM and the TGI (M14 melanoma) was 3.17 µM. For the same molecule, the TGI (HOP-18 NSCLC) was 16.8 µM, the TGI (SNB-75 CNS) was > 24 µM and the TGI (SK-OV-3 ovarian) was > 67.8 µM. For the same molecule, the TGI (OVCAR-4 ovarian) was > 100 µM, the GI50 (COLO 205 colon) was 0.299 µM and the TGI (COLO 205 colon) was 0.836 µM. The TGI (OVCAR-3 ovarian) was > 25.8 µM, the TGI (SN12C renal) was 3.93 µM and the TGI (TK-10 renal) was 31.3 µM. For the same molecule, the TGI (P388 leukemia) was 0.19 µM, the TGI (DMS 273 small cell lung) was 2.8 µM and the TGI (CCRF-CEM leukemia) was 3.49 µM. The TGI (ACHN renal) was 11.7 µM, the GI50 (OVCAR-8 ovarian) was 1.6 µM and the TGI (OVCAR-8 ovarian) was 10.8 µM. The TGI (HT29 colon) was 3.14 µM, the TGI (IGROV1 ovarian) was 63.8 µM and the TGI (SK-MEL-2 melanoma) was 4.12 µM. It also gave a TGI (SF-295 CNS) of 12.8 µM.

Source: PubChem BioAssay (NCI)
